Data set [1] in a line: Qualitative solubility comparison of monomeric photoinitiators. The format is physicochemical. The note with it: photoinitiator monomer; concentration and temperature printed in the cell.
Description: 100 mg of photoinitiator monomer sample was placed in a vial and appropriate amount of solvent was added. The vial was stirred at ambient temperature (20° C.) overnight or warmed with a hot air gun to 60° C. for 10 minutes. The qualitative solubility of the sample was then judged based on residual undissolved material in the vial.

This is an account of results in patent publication US10040893B2, “Polymeric photoinitiators and photoinitiator monomers” (Coloplast A/S, priority 2012, dated 2018).

Molecule `CCCOc1ccc(Cl)c2c(=O)c3ccccc3sc12` [1-chloro-4-propoxy thioxanthone] yielded a UV absorption wavelength (350-400 nm band region) of 387 nm. In addition, the “E1^1 (extinction coefficient of absorption)” value (at the stated absorption wavelength) stood at 175.

As for `O=C(c1ccccc1)c1ccc(OCCCN(CCO)CCO)cc1` [Preparatory Example 1, 4-{3-[bis(2-hydroxyethyl)amino]propoxy}benzophenone], in data set [1], the water solubility entry is “sparingly soluble at 100 °C”.

Take `O=c1c2ccccc2sc2c(OCCCN(CCO)CCO)ccc(Cl)c12` [Preparatory Example 2, 4-{3-[bis(2-hydroxyethyl)amino]propoxy}-1-chloro-9H-thioxanthen-9-one]: the water solubility result in data set [1] was “sparingly soluble at 100 °C”.
